The text below walks through data of patent publication US20100119599A1 (ARCHER PHARMACEUTICALS, INC., priority 2006, published 2010).

Experiment [1] relates to Aβ1-40. The experiment is described as follows: Measurement of Aβ1-40 in culture medium of 7W WT APP751 CHO cells by ELISA. In kind it is cell-based, Chinese hamster. To be noted: Cricetulus griseus; Table 1; 5 μM test compound; CHO cells stably transfected with human APP751; culture medium, ELISA; control DMSO; 0 = no detectable amount.
Experiment [2] deals with Aβ1-42. The experiment is described as follows: Measurement of Aβ1-42 in culture medium of 7W WT APP751 CHO cells by ELISA. It is filed as cell-based, Chinese hamster. The note with it: Cricetulus griseus; Table 1; 5 μM test compound; CHO cells stably transfected with human APP751; culture medium, ELISA; control DMSO; 0 = no detectable amount; read-out: Aβ1-42 (% of control). (In general: ELISA stands for enzyme-linked immunosorbent assay.)
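Further: 5 µM test compound but RI-coded compounds at 10 µM for 24 hours.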

Take `COc1ccccc1C1C(C(=O)OC(C)C)=C(C)NC2=C1C(=O)CC(c1ccccc1)C2` (stereo not drawn) [ST017220, methylethyl 4-(2-methoxyphenyl)-2-methyl-5-oxo-7-phenyl-1,4,6,7,8-pentahydroquinoline-3-carboxylate]: the activity at 5 µM in experiment [1] came out at 60.9%; in experiment [2] it was 99.6%.
Turning to `CCCOC(=O)C1=C(C)NC2=C(C(=O)CC(C)(C)C2)C1c1ccc(OC)cc1OC` (stereo not drawn) [ST017226, propyl 4-(2,4-dimethoxyphenyl)-2,7,7-trimethyl-5-oxo-1,4,6,7,8-pentahydroquinoline-3-carboxylate], the activity at 5 µM was 23.6% in experiment [1] and 26.5% in experiment [2].
In the case of `CCOc1cc(C2C(C(=O)OCc3ccccc3)=C(C)NC3=C2C(=O)CC(c2ccccc2)C3)ccc1O` (stereo not drawn) [ST017228, phenylmethyl 4-(3-ethoxy-4-hydroxyphenyl)-2-methyl-5-oxo-7-phenyl-1,4,6,7,8-pentahydroquinoline-3-carboxylate], the activity at 5 µM worked out at 95.6% in experiment [1] and 60.2% in experiment [2].
With `COc1ccc(C2C(C(=O)OC(C)C)=C(C)NC3=C2C(=O)CC(c2ccccc2)C3)c(OC)c1` (stereo not drawn) [ST017229, methylethyl 4-(2,4-dimethoxyphenyl)-2-methyl-5-oxo-7-phenyl-1,4,6,7,8-pentahydroquinoline-3-carboxylate], the figures for the activity at 5 µM in experiment [1] and in experiment [2] were 63.1% and 98.7%, respectively.
Consider `CC(=O)Oc1ccc(C2C(C(=O)OCCOc3ccccc3)=C(C)NC3=C2C(=O)CC(c2ccccc2)C3)cc1` (stereo not drawn) [ST017230, 4-{2-methyl-5-oxo-7-phenyl-3-[(2-phenoxyethyl)oxycarbonyl]-4-1,4,6,7,8-pentahydroquinolyl}phenyl acetate], for which the activity at 5 µM in experiment [1] worked out at 69.1%; in experiment [2] it was 84.7%.
With `CC1=C(C(=O)OCc2ccccc2)C(c2cccs2)C2=C(CCCC2=O)N1` (stereo not drawn) [ST017233, phenylmethyl 2-methyl-5-oxo-4-(2-thienyl)-1,4,6,7,8-pentahydroquinoline-3-carboxylate], the activity at 5 µM in experiment [1] turned out to be 60.9%; in experiment [2] it was 27.4%.
For `CCC(C)OC(=O)C1=C(C)NC2=C(C(=O)CC(c3ccc(OC)cc3)C2)C1c1cc2c(cc1[N+](=O)[O-])OCO2` (stereo not drawn) [ST017236, methylpropyl 7-(4-methoxyphenyl)-2-methyl-4-(6-nitro(2H-benzo[d]1,3-dioxolan-5-yl))-5-oxo-1,4,6,7,8-pentahydroquinoline-3-carboxylate], the activity at 5 µM in experiment [1] was found to be 61%; in experiment [2], 98.1%.
As to `CC1=C(C(=O)OCC2CCCO2)C(c2cccc(Cl)c2)C2=C(CC(C)(C)CC2=O)N1` (stereo not drawn) [ST017242, oxolan-2-ylmethyl 4-(3-chlorophenyl)-2,7,7-trimethyl-5-oxo-1,4,6,7,8-pentahydroquinoline-3-carboxylate], the results for the activity at 5 µM in experiment [1] and in experiment [2] were 49.6% and 0%, respectively.
As for `CCOc1cc(C2C(C(=O)OCCSCC)=C(C)NC3=C2C(=O)CC(c2ccc(Cl)cc2)C3)ccc1O` (stereo not drawn) [ST017243, 2-ethylthioethyl 7-(4-chlorophenyl)-4-(3-ethoxy-4-hydroxyphenyl)-2-methyl-5-ox o-1,4,6,7,8-pentahydroquinoline-3-carboxylate], the figures for the activity at 5 µM in experiment [1] and in experiment [2] were 69.6% and 15.6%, respectively.
As to `COc1ccc(C2CC(=O)C3=C(C2)NC(C)=C(C(=O)OCc2ccccc2)C3c2cc(OC)c(OC)c(OC)c2)cc1` (stereo not drawn) [ST017244, phenylmethyl 7-(4-methoxyphenyl)-2-methyl-5-oxo-4-(3,4,5-trimethoxyphenyl)-1,4,6,7,8-pentahydroquinoline-3-carboxylate], the activity at 5 µM was determined as 65.4% in experiment [1] and 24.4% in experiment [2].
Consider `CCCOC(=O)C1=C(C)NC2=C(C(=O)CC(C)(C)C2)C1c1ccncc1` (stereo not drawn) [ST017249, propyl 2,7,7-trimethyl-5-oxo-4-(4-pyridyl)-1,4,6,7,8-pentahydroquinoline-3-carboxylate], for which the activity at 5 µM in experiment [1] was determined as 67%; in experiment [2], 75.1%.
Regarding `CCCOC(=O)C1=C(C)NC2=C(C(=O)CCC2)C1c1cccnc1` (stereo not drawn) [ST017250, propyl 2-methyl-5-oxo-4-(3-pyridyl)-1,4,6,7,8-pentahydroquinoline-3-carboxylate], the values for the activity at 5 µM in experiment [1] and in experiment [2] were 28.5% and 49.2%, respectively.
As to `CCOC(=O)C1=C(C)NC2=C(C(=O)CC(c3ccccc3)C2)C1c1ccccn1` (stereo not drawn) [ST017251, ethyl 2-methyl-5-oxo-7-phenyl-4-(2-pyridyl)-1,4,6,7,8-pentahydroquinoline-3-carboxylate], the results for the activity at 5 µM in experiment [1] and in experiment [2] were 90.4% and 34.3%, respectively.
The matching figures for `COCCOC(=O)C1=C(C)NC2=C(C(=O)CC(C)(C)C2)C1c1cccnc1` (stereo not drawn) [ST017252, 2-methoxyethyl 2,7,7-trimethyl-5-oxo-4-(3-pyridyl)-1,4,6,7,8-pentahydroquinoline-3-carboxylate]: 89.6% and 70.5%.
For `CCCOC(=O)C1=C(C)NC2=C(C(=O)CCC2)C1c1ccc(Br)cc1` (stereo not drawn) [ST017259, propyl 4-(4-bromophenyl)-2-methyl-5-oxo-1,4,6,7,8-pentahydroquinoline-3-carboxylate], the activity at 5 µM worked out at 65.5% in experiment [1] and 87% in experiment [2].
Turning to `CCCOC(=O)C1=C(C)NC2=C(C(=O)CC(C)(C)C2)C1c1ccccc1` (stereo not drawn) [ST017262, propyl 2,7,7-trimethyl-5-oxo-4-phenyl-1,4,6,7,8-pentahydroquinoline-3-carboxylate], the results for the activity at 5 µM in experiment [1] and in experiment [2] were 60.1% and 86%, respectively.
Take `CCCOC(=O)C1=C(C)NC2=C(C(=O)CC(c3ccccc3)C2)C1c1ccc(CC)cc1` (stereo not drawn) [ST017264, propyl 4-(4-ethylphenyl)-2-methyl-5-oxo-7-phenyl-1,4,6,7,8-pentahydroquinoline-3-carboxylate]: the results for the activity at 5 µM in experiment [1] and in experiment [2] were 29.7% and 48.2%, respectively.
On to `COc1ccc(C2CC(=O)C3=C(C2)NC(C)=C(C(=O)OCc2ccccc2)C3c2ccncc2)cc1` (stereo not drawn) [ST017266, phenylmethyl 7-(4-methoxyphenyl)-2-methyl-5-oxo-4-(4-pyridyl)-1,4,6,7,8-pentahydroquinoline-3-carboxylate], for which the activity at 5 µM in experiment [1] came to 65.5%; in experiment [2], 64.6%.
Regarding `CCCOC(=O)C1=C(C)NC2=C(C(=O)CC(c3ccccc3)C2)C1c1ccc(Cl)cc1Cl` (stereo not drawn) [ST017293, propyl 4-(2,4-dichlorophenyl)-2-methyl-5-oxo-7-phenyl-1,4,6,7,8-pentahydroquinoline-3-carboxylate], the results for the activity at 5 µM in experiment [1] and in experiment [2] were 57.7% and 95.2%, respectively.
Take `CCOc1ccccc1C1C(C(=O)OC2CCCCC2)=C(C)NC2=C1C(=O)CC(C)(C)C2` (stereo not drawn) [ST017304, cyclohexyl 4-(2-ethoxyphenyl)-2,7,7-trimethyl-5-oxo-1,4,6,7,8-pentahydroquinoline-3-carboxylate]: the activity at 5 µM stood at 52% in experiment [1] and 57.2% in experiment [2].
With `CCOCCOC(=O)C1=C(C)NC2=C(C(=O)CC(c3ccccc3)C2)C1c1ccccc1F` (stereo not drawn) [ST017312, 2-ethoxyethyl 4-(2-fluorophenyl)-2-methyl-5-oxo-7-phenyl-1,4,6,7,8-pentahydroquinoline-3-carboxylate], the activity at 5 µM in experiment [1] was determined as 15.3%; in experiment [2] it was 71.2%.
